We go through 2 compounds from patent US11534415B2, “Use of colchicine to inhibit tumor growth and metastases” (Murray and Poole Enterprises, LTD., priority 2018, dated 2022).

The test system of experiment [1] is commonly used tumor models. Nature of the experiment: Example 5: anti-tumor effects of colchicine in animals (tumor models). The format is in vivo. Conditions: vs placebo control group. The method, then: A sufficient amount of specimen of a suitable animal species are included in this study utilizing commonly used tumor models. A therapeutically effective amount of colchicine is administered to the test animals. Placebo is administered to a control group. Tumor growth is induced in all animals.

For experiment [2], the system named is commonly used tumor cell lines with or without combination with cultivated PBMCs. Nature of the experiment: Example 6: anti-tumor effects of colchicine in vitro. The format is cell-based. To be noted: incubation with colchicine and/or cultivation with pretreated PBMCs. From the text:
A suitable in vitro model for studying the anti-tumor effects of drugs is utilized for this test. Such a test may include commonly used tumor cell lines with or without combination with cultivated PBMCs.

Experiment [3] concerns subjects with a first episode of acute pericarditis. To be noted: at 18 months; aspirin alone or plus colchicine 1.0 to 2.0 mg first day then 0.5 to 1.0 mg/day for 3 months; p=0.004; cited from earlier work.
Experiment [4] has as its system subjects with a first episode of recurrent pericarditis. To be noted: actual rates at 18 months; aspirin alone or plus colchicine 1.0-2.0 mg first day then 0.5-1.0 mg/d for 6 months; cited from earlier work.
Experiment [5] has as its system subjects with stable coronary disease. To be noted: colchicine 0.5 mg/day in addition to statins and other standard secondary prevention therapies; median of 3 years; cited from earlier work.
Experiment [6] deals with human lipopolysaccharide (LPS) stimulated peripheral blood mononuclear cells (PBMC). Conditions: colchicine added to LPS stimulated PBMC; cited from earlier work.
Experiment [7] concerns co-cultures of PBMC with either HT-29 or RKO human colon cancer cells. To be noted: co-culture with HT-29 or RKO cells; cited from earlier work.
Experiment [8] relates to subjects with cancer or in risk of cancer. Kind of experiment: Example 4: randomized observer blinded end-point trial of sustained release colchicine added to standard anti-cancer therapies. Conditions: long-term low dose sustained release colchicine 0.5 mg/day vs standard therapy alone.
Method: To assess the therapeutic effects of a sustained release formulation in subjects with or in subjects with an increased risk of cancer, a prospective randomized observer blinded end-point trial was conducted to determine whether adding 0.5 mg/day of colchicine to standard anti-cancer therapies inhibits, delays, or reduces tumor growth or metastases in a cancer subject.
A sufficient amount of subjects with cancer or in risk of cancer are randomized to long-term low dose sustained release colchicine or to standard therapy alone.

`COc1cc2c(c(OC)c1OC)-c1ccc(OC)c(=O)cc1[C@@H](NC(C)=O)CC2` [colchicine, (−)-N-[(7S, 12aS)-1,2,3,10-tetramethoxy-9-oxo-5,6,7,9-tetrahydrobenzo[a]heptalen-7-yl]-acetamide]: in experiment [1], the tumor growth entry is recorded as “tumor growth is prevented and/or reduced”. Moreover, the “growth of tumor cell lines” value in experiment [2] is “inhibits or reduces growth of tumor cell lines”. Moreover, in experiment [3], the recurrence rate was 10.7%. Besides, the recurrence rate in experiment [4] is on record as 24.0%. Further, in experiment [5], the “prevention of cardiovascular events” value is listed as “appeared effective for the prevention of cardiovascular events”. Also, in experiment [6], the IL-1β release entry is “increased” and the TNF-α release entry was “decreased”. Besides, in experiment [7], the “IL-1β production by cancer cells-stimulated PBMC” value is “promoted cancer cells-stimulated PBMC to produce IL-1β”; the “release of TNF-α and IL-10” value was “inhibit the release of tumor necrosis factor (TNF)-α and IL-10”. Further, the “cancer incidence and mortality” value in experiment [8] is “significantly lower cancer incidence and mortality”.

As for `CC(=O)Oc1ccccc1C(=O)O` [aspirin], the recurrence rate was 32.3% in experiment [3] and 50.6% in experiment [4].
